{"source": "patent US20250296942A1", "about": "“Phosphonate-Based Coordination Complexes and Methods of Preparation and Use Thereof” (University of Puerto Rico, priority 2021, published 2025)", "key": {"[1]": {"assay": "Hydroxyapatite (HA) binding assay of RISE and nano-Ca@RISE", "description": "Hydroxyapatite (HA) binding assay. For the binding assay of nano-Ca@RISE, 20 mg of hydroxyapatite (HA) were exposed to 3 mL of a nano-Ca@RISE in PBS solution (0.5 mg/mL), for 0-11 days at 37° C. As control groups, RISE and HA, both in PBS, were employed. Samples were collected each day from 11 consecutive days. After each time point, the supernatant was collected and centrifuged (1,500 rpm, 8 min). […]\nThe capacity of nano-Ca@RISE to bind to the main constituent of the bone microenvironment, HA, under simulated physiological conditions, was evaluated through a binding assay. […]. […] […]. Therefore, a calibration curve of nano-Ca@RISE in PBS was employed for quantification of the nanocrystal's concentration in the supernatant after the binding assay.\nFor the nano-Ca@RISE binding assay, 20 mg of hydroxyapatite (HA), were added to 3.00 mL of nano-Ca@RISE (0.5 mg/mL) in PBS solution. HA in PBS mixture, and the binding of RISE to HA, were used as control groups. The samples were left for 0-11 days at 37° C. and 300 rpm. As a comparative method, additional binding assay for RISE “as received” was conducted employing the same parameters as for the nanocrystals. The selected time points were: 1, 2, 3, 4, 5, 7, 8, 9, 10, and 11 days. The supernatant was collected after each time point, then centrifuged (1,500 rpm, 8 min), and absorbance measurements were performed at 206 nm to determine the binding percentage of RISE from the nano-Ca@RISE to HA. FIGS. S8.6.1 and S8.6.2 illustrate the binding curves of RISE and nano-Ca@RISE to HA in PBS."}, "[2]": {"assay": "AlamarBlue cytotoxicity, RISE and nano-Ca@RISE, hFOB 1.19", "format": "cell-based, human", "conditions": "human, hFOB 1.19 osteoblast cells, hFOB 1.19, read-out: Relative cell viability (% RCL)", "description": "(§1) Cell culture methods. The MDA-MB-231 cell line was incubated with DMEM, 1% Pen-Strep, and 10% FBS at 37° C. in 5% CO2. The hFOB 1.19 cell line was incubated with 1:1 DMEM:F-12, 0.3 mg/mL G418, and 10% FBS at 34° C. in 5% CO2. Cell passages were performed weekly at 80% of cell confluency, media was exchanged twice a week.\n(§2) Cell treatments. Both cell lines were treated with RISE (control) and nano-Ca@RISE (experimental). […]. Both cell lines (MDA-MB-231 and hFOB 1.19) were seeded in 96 well plates at 2.5×10^5 cell/mL. The cells were incubated for 24 h at 37° C. (MDA-MB-231) and 34° C. (hFOB 1.19), respectively. After the initial incubation period, both cell lines were treated with 100 μL of the RISE solutions previously prepared, and incubation was performed for 24, 48, and 72 h at the respective incubation temperatures. For both cell lines, media (MDA-MB-231: DMEM, Pen-Strep) and (hFOB 1.19: DMEM, F-12, G418) were used with control groups. AlamarBlue® assay was utilized to determine cell proliferation, for this, 10% of AlamarBlue® solution in PBS was prepared. Finally, the media was removed from the 96 well plates, 100 μL of 10% AlamarBlue® solution was added, and the cells were incubated for 4 h at the same previously mentioned conditions. After the AlamarBlue® assay, the fluorescence (λexc=560 nm, λem=590 nm) was evaluated employing an Infinite M200 PRO Tecan Microplate Reader. […]. The nonlinear regression method using Graph Pad Prism 8 was applied to fit the dose-response curves (% cell live vs concentration) and determined the IC50 values for RISE.\n(§3) […]. Treatments at these concentrations were carried out at 24, 48, and 72 h for RISE and nano-Ca@RISE. The cell seeding and AlamarBlue® assay were completed as described above for the IC50 determination in both cell lines. […]. All experiments were performed in triplicates and the data was statistically treated using mean, standard deviation, and the coefficient of variation percentage (% CV).\n(§4) Cell culture methods for the hFOB 1.19 cell line. This cell line was grown in 1:1 mixture of Ham's F12 Medium Dulbecco's Modified Eagle's Medium accompanied with 10% FBS and 0.3 mg/ml of geneticin (G418), incubated at 34° C. in 5% CO2. Cell passage and cell treatment were performed at 80% of cell confluency. The completed growth media was exchanged every two days.\n(§5) Cell seeding. The MDA-MB-231 and hFOB 1.19 cell lines were seeded in 96 well plates at a density of 2.5×10^5 cells/mL, incubation was carried out for 24 h at 37° C. for MDA-MB-231 and 34° C. for osteoblast hFOB 1.19, in 5% CO2. The experiments were conducted in triplicates, three 96 well plates were made for each treatment period (24, 48, and 72 h).\n(§6) Cell treatment. To determine the half-maximal inhibitory concentration (IC50), for both cell lines, two-fold serial dilutions of RISE (0-200 μM) were prepared. To assess the relative cell live (% RCL) were employed selected […] (50, 45, 40, and 35 μM) of RISE and nano-Ca@RISE for MDA-MB-231 and hFOB 1.19 cell lines. For this, after the seeding, 100 μL of RISE and nano-Ca@RISE were used to treat the cells. The control groups were treated with just media. Both cell lines were incubated for 24, 48, and 72 h after RISE and nano-Ca@RISE solutions were added.\n(§7) AlamarBlue@assay. For both cell lines, after the 24, 48, and 72 h of treatment, the media was removed from the 96 well plates. Subsequently, 100 μL of 10% AlamarBlue® solution was added and incubation was carried out for 4 h. The fluorescence (λexc=570 nm, λem=590 nm) was measured employing an Infinite M200 PRO Tecan Microplate Reader. […]. The IC50 curves and the % RCL values were plotted using the Graph Pad Prism 8 program."}, "[3]": {"tested_on": "normal osteoblast-like hFOB 1.19 cell line", "assay": "AlamarBlue cytotoxicity, RISE and nano-Ca@RISE, hFOB 1.19", "format": "cell-based, human", "conditions": "for IC50: Homo sapiens", "description": "as §1, §2, §3, §4, §5, §6, §7"}}, "note": "Several values for one entry are separate records, joined by “and”; a condition that tells them apart may be missing. Equal entries are not always repeated.", "data": [{"smiles": "O=P(O)(O)C(O)(Cc1cccnc1)P(=O)(O)O", "note": "[RISE, Monosodium risedronate hemipentahydrate]", "values": [{"measurement": "time to reach maximum binding to HA", "setting": "[1]; PBS", "value": 8, "unit": "days"}, {"measurement": "maximum binding to HA", "setting": "[1]; PBS pH 7.40, 37 °C, 0-11 days", "value": 76, "unit": "%"}, {"measurement": "bound to HA", "setting": "[1]; PBS pH 7.40, 37 °C, 1 day", "value": "18% and 17%"}, {"measurement": "viability at 24 h, 35 µM", "setting": "[2]; 35 μM, 24 h", "value": "100 ± 1", "unit": "%"}, {"measurement": "viability at 48 h, 35 µM", "setting": "[2]; 35 μM, 48 h", "value": 101, "unit": "%"}, {"measurement": "viability at 72 h, 35 µM", "setting": "[2]; 35 μM, 72 h", "value": "100 ± 2", "unit": "%"}, {"measurement": "viability at 24 h, 40 µM", "setting": "[2]; 40 μM, 24 h", "value": "100 ± 1", "unit": "%"}, {"measurement": "viability at 48 h, 40 µM", "setting": "[2]; 40 μM, 48 h", "value": 100, "unit": "%"}, {"measurement": "viability at 72 h, 40 µM", "setting": "[2]; 40 μM, 72 h", "value": "100 ± 1", "unit": "%"}, {"measurement": "viability at 24 h, 45 µM", "setting": "[2]; 45 μM, 24 h", "value": "100 ± 1", "unit": "%"}, {"measurement": "viability at 48 h, 45 µM", "setting": "[2]; 45 μM, 48 h", "value": "100 ± 1", "unit": "%"}, {"measurement": "viability at 72 h, 45 µM", "setting": "[2]; 45 μM, 72 h", "value": "99 ± 2", "unit": "%"}, {"measurement": "viability at 24 h, 50 µM", "setting": "[2]; 50 μM, 24 h", "value": "99 ± 1", "unit": "%"}, {"measurement": "viability at 48 h, 50 µM", "setting": "[2]; 50 μM, 48 h", "value": "96 ± 4", "unit": "%"}, {"measurement": "viability at 72 h, 50 µM", "setting": "[2]; 50 μM, 72 h", "value": "98 ± 1", "unit": "%"}, {"measurement": "IC50", "setting": "[3]; 24 h", "value": "> 200", "unit": "µM"}, {"measurement": "IC50", "setting": "[3]; 48 h", "value": "> 200", "unit": "µM"}, {"measurement": "IC50", "setting": "[3]; 72 h", "value": "> 200", "unit": "µM"}, {"measurement": "cell death", "setting": "[3]; hFOB 1.19, 35 and 40 μM, 24, 48, 72 h", "value": "no significant cell death"}, {"measurement": "% RCL", "setting": "[3]; hFOB 1.19, 45 and 50 μM, time not stated", "value": "~100", "unit": "%"}]}]}
